Our source for the TGI and GI50 values is PubChem BioAssay (NCI).

Each structure is given as a SMILES string.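 Values below derive from 48-hour exposures of cells grown in 96-well plates, with endpoints linearly interpolated between the two concentrations bracketing the appropriate inhibition level. GI50 is the concentration that inhibits growth by half. TGI: total growth inhibition.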

Holding throughout (experiment): growth of human tumour cells (NCI), 48 h
The subject of assay [1] is ACHN renal.
The test system of assay [2] is MOLT-4 leukemia.
The subject of assay [3] is NCI-H522 lung.
In assay [4] the test system is OVCAR-5 ovarian.
Assay [5] has as its system SF-539 CNS.
The test system of assay [6] is SK-MEL-28 melanoma.
In assay [7] the test system is SK-OV-3 ovarian.
The test system of assay [8] is UACC-257 melanoma.
The test system of assay [9] is UACC-62 melanoma.
Assay [10] concerns SR leukemia.

`O=C(NC1=NC2C=CC([N+](=O)[O-])=CC2S1)C(=O)Nn1c(=S)[nH]c2ccccc2c1=O` (configuration not stated): the TGI is 85.3 µM in assay [1]; greater than 100 µM in assay [2]; greater than 100 µM in assay [3]; greater than 100 µM in [4]; greater than 100 µM in [5]; greater than 100 µM in assay [6]. Further, the TGI in assay [7], in [8] and in assay [9] was greater than 100 µM each time.

As for `O=C1C(=O)C(Br)(Br)C(Br)=C1Br`, the TGI in assay [1] was 29.6 µM; in [2], 63 µM; in [3], 6.68 µM; in assay [4], 26.8 µM; in assay [5], 33.4 µM; in assay [6] it was 29.7 µM. Also, the values for the TGI in [7], in assay [8] and in assay [9] were greater than 100 µM, 43.6 µM and 33.6 µM, respectively.

Consider `NC(=S)N/N=C1/C(=O)N(c2ccc(Cl)cc2Cl)C(=O)C(=O)C1c1nc2ccccc2s1` (configuration not stated), for which the TGI in [1], in assay [2], in [3], in [4], in [5] and in assay [6] was greater than 100 µM in each case. The TGI in [7], in [8] and in assay [9] was greater than 100 µM throughout.

Turning to `CC1C=CC(=O)C(n2cc(F)c(=O)[nH]c2=O)O1` (configuration not stated), the TGI was 36.8 µM in assay [1]; 48.7 µM in assay [2]; 31.2 µM in assay [5]; 46.8 µM in assay [6]; 61 µM in assay [7]; 30 µM in assay [8]. Also, the TGI in assay [9] turned out to be 31.7 µM.

On to `CC1OC(OCC2COC(O)(Oc3c(-c4ccc(O)c(O)c4)oc4cc(O)cc(O)c4c3=O)C(O)C2O)C(O)C(O)C1O` (configuration not stated), for which the TGI in assay [1], in assay [2], in [4], in assay [5], in [6] and in [7] was greater than 100 µM each time. Also, the TGI in [10], in [8] and in [9] was greater than 100 µM throughout.

Regarding `COc1ccc2c(c1)CC[C@@H]1[C@@H]2CC[C@]2(C)C(c3ccco3)=C(C=O)C[C@@H]12`, the GI50 in [1] is 3.56 µM; in [2], 7.27 µM; in assay [3] it was 21.1 µM; in [4], 30.5 µM; in assay [5], 20 µM; in assay [6], 15.8 µM. Moreover, the GI50 is 28.9 µM in assay [7], 21.7 µM in assay [8] and 3.82 µM in assay [9]. The TGI in assay [1] was 13.5 µM; in assay [2] it was 38.6 µM; in assay [3], greater than 100 µM; in assay [4] it was 94.1 µM; in [5], 40.6 µM; in assay [6], greater than 100 µM. The TGI in [7] worked out at 77.7 µM; in assay [8], 44.6 µM; in assay [9], 16.3 µM.

Consider `COc1ccc(/C=C2\CCC(C)(CN(C)C)C2=O)cc1` (configuration not stated), for which the TGI in assay [1] was greater than 100 µM; in assay [2], greater than 100 µM; in assay [3] it was 32.8 µM; in assay [4], greater than 100 µM; in [5], greater than 100 µM; in assay [6], greater than 100 µM. The TGI in assay [8] and in assay [9] was greater than 100 µM each time.

Turning to `COc1ccc2nc3ccccc3c(NCCCCCCN(C)CCCl)c2c1`, the TGI in assay [1] was 2.36 µM; in [2], 0.165 µM; in assay [3], 1.58 µM; in assay [4], 3.25 µM; in [5], 2.11 µM; in assay [6], 2.26 µM. Besides, the TGI in [7] was 2.04 µM; in [8], 3.19 µM; in assay [9], 1.61 µM.

Regarding `CCOC(=O)c1cn(Cc2ccccc2)c(=O)n1Cc1ccccc1`, the TGI in assay [1], in assay [2], in assay [3], in assay [4], in [5] and in [6] was greater than 100 µM in each case. For the same compound, the TGI in [7], in assay [8] and in assay [9] was greater than 100 µM throughout.

As to `O=c1cnn2c(n1)sc1ccc3ccccc3c12`, the TGI in assay [1], in assay [2], in assay [4], in assay [5], in [6] and in assay [7] was greater than 100 µM in each case. In addition, the TGI in assay [10], in [8] and in [9] was greater than 100 µM in each case.

For the compound `COc1ccc2c(c1)OC[C@@H]1c3cc4c(cc3O[C@H]21)OCO4`, the TGI in [1], in [2], in assay [3], in [4], in assay [5] and in assay [6] was greater than 100 µM each time. For the same compound, the TGI in [7] was greater than 100 µM.

For `O=C(NO)C12C3C4C1C1C2C3C41C(=O)NO` (configuration not stated), the TGI in [1], in [2], in assay [3], in assay [4], in assay [5] and in [6] was greater than 100 µM each time. The TGI in [7] and in assay [9] was greater than 100 µM in each case.

Regarding `C=C(C)[C@@H]1CC[C@]2(C)[C@H](CC[C@@H]3[C@H]4[C@H]5OC[C@@]4(CCC5(C)C)CC[C@]32C)[C@@]1(C)CCCN`, the GI50 in assay [1] is 1.84 µM; in [2], 2.79 µM; in assay [4], 1.71 µM; in assay [5], 1.78 µM; in [6], 1.83 µM; in [8], 1.88 µM. Moreover, the GI50 in [9] is 1.71 µM. The TGI stood at 3.23 µM in [1]; 7.86 µM in [2]; 3.1 µM in assay [4]; 3.22 µM in [5]; 3.36 µM in assay [6]; 3.73 µM in assay [8]. Further, the TGI in assay [9] was determined as 3.12 µM.

Regarding `CC(C)=CC(=O)Cc1nc2cc(C)c(C)cc2[nH]c1=O`, the TGI in [1], in assay [2], in assay [4], in assay [5], in assay [6] and in assay [7] was greater than 100 µM in each case. In addition, the TGI in assay [10], in assay [8] and in assay [9] was greater than 100 µM in each case.

With `Cc1ccccc1CN1CC=c2ccccc2=N1`, the TGI in assay [1], in assay [4], in [5], in [6], in [7] and in [8] was greater than 100 µM each time. In addition, in assay [9], the TGI is greater than 100 µM.

On to `CCOC(=O)c1sc(Nc2ccc(Cl)cc2)nc1C`, for which the GI50 in [1] was 1.68 µM; in assay [2], 1.79 µM; in assay [3], 1.18 µM; in [4], 2.08 µM; in assay [5] it was 1.66 µM; in [6], 1.96 µM. The GI50 in assay [7] was 2.44 µM; in [8] it was 2.11 µM; in [9], 1.17 µM. Also, the TGI stood at 3.88 µM in [1]; 6.92 µM in [2]; 3.57 µM in assay [3]; 6.63 µM in [4]; 3.72 µM in assay [5]; 4.23 µM in [6]. The TGI was 6.8 µM in assay [7], 4.67 µM in [8] and 2.71 µM in assay [9].

For the compound `Cc1ccc(C)c(NC(=O)CC/C(=N\NC(=O)C(N)=O)C(C)C(=O)c2ccc(O)cc2)c1` (configuration not stated), the TGI in assay [1], in [2], in assay [4], in [5], in [6] and in [7] was greater than 100 µM throughout. The TGI in assay [10], in [8] and in [9] was greater than 100 µM throughout.

For `NCCNC(=S)S`, the TGI in [1] is greater than 100 µM; in assay [2], 77.9 µM; in assay [3] it was 16.6 µM; in assay [4] it was greater than 100 µM; in assay [6], greater than 100 µM; in [7] it was greater than 100 µM. Besides, the TGI in [8] and in [9] was greater than 100 µM each time.

For the compound `OCC12C3C4C1C1C2C3C41CO` (configuration not stated), the TGI in assay [1], in [2], in assay [4], in [5], in assay [6] and in assay [7] was greater than 100 µM each time. In addition, the TGI in assay [8] and in assay [9] was greater than 100 µM in each case.

Consider `O=C1CCC2(CC1)SCCCS2`, for which the TGI in [1], in [3], in [4], in [6], in assay [7] and in assay [8] was greater than 100 µM throughout. Also, the TGI in [9] was greater than 100 µM.

Take `CCCCCCCC/C=C\CCCCCCCC(=O)NCCN(CCN)C(=O)CCCCCCC/C=C\CCCCCCCC`: the TGI in assay [1], in [2], in [4], in [6], in assay [7] and in assay [10] was greater than 100 µM each time. Moreover, the TGI in [8] and in assay [9] was greater than 100 µM throughout.

Consider `CC(C)OP(=O)(OC(C)C)C(=Nc1ccccc1)NNc1ccc([N+](=O)[O-])cc1`, for which the TGI was 92.5 µM in assay [1]; 41.9 µM in [2]; 58 µM in assay [3]; greater than 100 µM in assay [4]; greater than 100 µM in assay [5]; 89.5 µM in [6]. In addition, the TGI in [10] is 43.4 µM; in [8], greater than 100 µM; in [9], 29.1 µM.

As for `Nc1c(-c2ccc(Cl)cc2Cl)[n+]([O-])c2ccccc2[n+]1[O-]`, the TGI in assay [1], in [2], in assay [3], in assay [4], in [5] and in [6] was greater than 100 µM each time. In addition, the TGI in assay [7], in assay [8] and in assay [9] was greater than 100 µM in each case.

Turning to `CC(C)(C)C(=O)C1CC(=O)c2ccccc2C1=O` (configuration not stated), the TGI was greater than 100 µM in assay [1]; 75.9 µM in assay [2]; 65.8 µM in assay [3]; greater than 100 µM in assay [4]; greater than 100 µM in assay [5]; 72.8 µM in assay [6]. The figures for the TGI in assay [7], in assay [8] and in [9] were 75 µM, 46.1 µM and greater than 100 µM, respectively.

As for `COc1ccc(C2=NN(C(C)=O)C(c3cn(-c4ccccc4)nc3-c3ccc(Cl)cc3)C2)cc1` (configuration not stated), the GI50 in [1] is greater than 100 µM; in assay [2] it was greater than 100 µM; in assay [4] it was greater than 100 µM; in assay [5], 25.4 µM; in assay [6], greater than 100 µM; in assay [7] it was 4.64 µM. The GI50 in assay [8] and in [9] was greater than 100 µM each time. Also, the TGI in assay [1], in [2], in assay [4], in assay [5], in assay [6] and in assay [7] was greater than 100 µM in each case. Moreover, the TGI in [8] and in assay [9] was greater than 100 µM throughout.

Turning to `Cc1cc(Cl)ccc1N=C1NC(=O)C(CC(=O)Nc2ccc(Cl)cc2Cl)S1` (configuration not stated), the TGI in assay [1], in [2], in assay [4], in [5], in [6] and in assay [7] was greater than 100 µM each time. For the same compound, the TGI in assay [8] and in [9] was greater than 100 µM in each case.

Consider `N#CCCN(c1ccc(-c2nnc(NC(=O)CNNC(=O)CC(=O)Nc3ccccc3)s2)cc1)S(=O)(=O)c1ccccc1`, for which the TGI in assay [1], in assay [2], in assay [3], in [4], in assay [5] and in [6] was greater than 100 µM in each case. Moreover, the TGI in assay [7], in [8] and in [9] was greater than 100 µM in each case.

Turning to `COC(=O)C1=C(CO)C2C=CC1C2` (configuration not stated), the TGI in assay [1], in assay [2], in assay [3], in assay [4], in [5] and in assay [7] was greater than 100 µM each time. For the same compound, the TGI in [8] and in assay [9] was greater than 100 µM each time.
